Data taken from patent US9802928B2 (Merck Sharp & Dohme Corp., priority 2013, dated 2017).

Legend:
[1] = target: soluble human BACE1 catalytic domain (Homo sapiens (Human), UniProt P56817); assay: BACE1 HTRF FRET Assay; type: biochemical; details: Ki calculated from IC50 using the Cheng-Prusoff equation; QSY7-APPswe-Eu substrate, pH 5.0
Source text: Na^+-Acetate pH 5.0; 1% Brij-35; Glycerol; Dimethyl Sulfoxide (DMSO); Recombinant human soluble BACE1 catalytic domain (>95% pure); APP Swedish mutant peptide substrate (QSY7-APP^swe-Eu): QSY7-[…]-Europium-amide.
A homogeneous time-resolved FRET assay can be used to determine IC50 values for inhibitors of the soluble human BACE1 catalytic domain. This assay monitors the increase of 620 nm fluorescence that resulted from BACE1 cleavage of an APPswedish APP^swe mutant peptide FRET substrate (QSY7-[…]-Europium-amide). This substrate contains an N-terminal QSY7 moiety that serves as a quencher of the C-terminal Europium fluorophore (620 nm Em). In the absence of enzyme activity, 620 nm fluorescence is low in the assay and increased linearly over 3 hours in the presence of uninhibited BACE1 enzyme Inhibition of BACE1 cleavage of the QSY7-APP^swe-Eu substrate by inhibitors is manifested as a suppression of 620 nm fluorescence.
Varying concentrations of inhibitors at 3× the final desired concentration in a volume of 10 ul are preincubated with purified human BACE1 catalytic domain (3 nM in 10 μl) for 30 minutes at 30° C. in reaction buffer containing 20 mM Na-Acetate pH 5.0, 10% glycerol, 0.1% Brij-35 and 7.5% DSMO. Reactions are initiated by addition of 10 μl of 600 nM QSY7-APP^swe-Eu substrate (200 nM final) to give a final reaction volume of 30 μl in a 384 well Nunc HTRF plate. The reactions are incubated at 30° C. for 1.5 hours. The 620 nm fluorescence is then read on a Rubystar HTRF plate reader (BMG Labtechnologies) using a 50 millisecond delay followed by a 400 millisecond acquisition time window. Inhibitor IC50 values are derived from non-linear regression analysis of concentration response curves. Ki values are then calculated from IC50 values using the Cheng-Prusoff equation using a previously determined […] of 8 μM for the QSY7-APP^swe-Eu substrate at BACE1.

[2] = target: purified human autoBACE-2 (Homo sapiens (Human), UniProt Q9Y5Z0); assay: BACE-2 Assay (BACE-HTRF assay); type: biochemical; details: Ki calculated from IC50 using the Cheng-Prusoff equation; QSY7-EISEVNLDAEFC-Eu-amide substrate, pH 5.0; read-out: BACE2 Ki
Protocol: Inhibitor IC50s at purified human autoBACE-2 are determined in a time-resolved endpoint proteolysis assay that measures hydrolysis of the QSY7-EISEVNLDAEFC-Eu-amide FRET peptide substrate (BACE-HTRF assay). BACE-mediated hydrolysis of this peptide results in an increase in relative fluorescence (RFU) at 620 nm after excitation with 320 nm light. Inhibitor compounds, prepared at 3× the desired final concentration in 1×BACE assay buffer (20 mM sodium acetate pH 5.0, 10% glycerol, 0.1% Brij-35) supplemented with 7.5% DMSO are pre-incubated with an equal volume of autoBACE-2 enzyme diluted in 1×BACE assay buffer (final enzyme concentration 1 nM) in black 384-well NUNC plates for 30 minutes at 30° C. The assay is initiated by addition of an equal volume of the QSY7-EISEVNLDAEFC-Eu-amide substrate (200 nM final concentration, Km=8 μM […] for autoBACE-2) prepared in 1×BACE assay buffer supplemented with 7.5% DMSO and incubated for 90 minutes at 30° C. DMSO is present at 5% final concentration in the assay. Following laser excitation of sample wells at 320 nm, the fluorescence signal at 620 nm is collected for 400 ms following a 50 μs delay on a RUBYstar HTRF plate reader (BMG Labtechnologies). Raw RFU data is normalized to maximum (1.0 nM BACE/DMSO) and minimum (no enzyme/DMSO) RFU values. IC50s are determined by nonlinear regression analysis (sigmoidal dose response, variable slope) of percent inhibition data with minimum and maximum values set to 0 and 100 percent respectively. Similar IC50s are obtained when using raw RFU data. The Ki values are calculated from the IC50 using the Cheng-Prusoff equation.

purified human autoBACE-2, sequence (Q9Y5Z0 63-473 limits assumed): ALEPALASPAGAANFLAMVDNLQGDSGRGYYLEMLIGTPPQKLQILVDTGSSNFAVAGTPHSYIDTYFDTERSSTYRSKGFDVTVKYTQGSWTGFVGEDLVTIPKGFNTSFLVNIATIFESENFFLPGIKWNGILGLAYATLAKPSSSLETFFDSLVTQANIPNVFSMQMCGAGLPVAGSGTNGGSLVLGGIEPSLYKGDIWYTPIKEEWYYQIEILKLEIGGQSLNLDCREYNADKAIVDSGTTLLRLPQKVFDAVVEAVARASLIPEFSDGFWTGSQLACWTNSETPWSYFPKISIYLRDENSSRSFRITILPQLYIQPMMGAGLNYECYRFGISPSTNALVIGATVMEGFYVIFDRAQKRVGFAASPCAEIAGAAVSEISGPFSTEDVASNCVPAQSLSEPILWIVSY
soluble human BACE1 catalytic domain, sequence (P56817 75-416): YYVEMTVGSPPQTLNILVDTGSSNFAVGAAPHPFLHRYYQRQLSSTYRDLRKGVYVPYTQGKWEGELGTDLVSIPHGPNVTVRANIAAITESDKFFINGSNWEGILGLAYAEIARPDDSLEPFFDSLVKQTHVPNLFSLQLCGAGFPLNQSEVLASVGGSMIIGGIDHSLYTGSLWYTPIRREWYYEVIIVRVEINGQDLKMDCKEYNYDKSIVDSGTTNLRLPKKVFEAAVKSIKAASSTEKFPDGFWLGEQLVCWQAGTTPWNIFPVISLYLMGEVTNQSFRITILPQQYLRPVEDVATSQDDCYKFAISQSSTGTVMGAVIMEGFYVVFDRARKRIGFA

Row | SMILES | Ki [1] [nM] | Ki [2] [nM]
1 | CN1C(=N)N[C@](C)(c2cc(NC(=O)c3ccn(C(F)F)n3)ccc2F)C2(CC2)S1(=O)=O [Example 1l, 1-(difluoromethyl)-N-{4-fluoro-3-[(8R)-6-imino-5,8-dimethyl-4,4-dioxido-4-thia-5,7-diazaspiro[2.5]oct-8-yl]phenyl}-1H-pyrazole-3-carboxamide] | 5 | 2
2 | Cc1nc(C(=O)Nc2ccc(F)c([C@@]3(C)NC(=N)N(C)S(=O)(=O)C34CC4)c2)no1 [Example 1h, N-{4-fluoro-3-[(8R)-6-imino-5,8-dimethyl-4,4-dioxido-4-thia-5,7-diazaspiro[2.5]oct-8-yl]phenyl}-5-methyl-1,2,4-oxadiazole-3-carboxamide] | 31 | 8
3 | COc1cnc(C(=O)Nc2ccc(F)c([C@@]3(C)NC(=N)N(C)S(=O)(=O)C34CC4)c2)cn1 [Example 1e] | 20 | 56
4 | CN1C(=N)N[C@](C)(c2cc(NC(=O)c3ccc(C(F)(F)F)cn3)ccc2F)C2(CC2)S1(=O)=O [Example 1f, N-{4-fluoro-3-[(8R)-6-imino-5,8-dimethyl-4,4-dioxido-4-thia-5,7-diazaspiro[2.5]oct-8-yl]phenyl}-5-(trifluoromethyl)pyridine-2-carboxamide] | 8 | 55
5 | CN1C(=N)N[C@](C)(c2cc(NC(=O)c3ccc(C#N)cn3)ccc2F)C2(CC2)S1(=O)=O [Example 1g, 5-cyano-N-{4-fluoro-3-[(8R)-6-imino-5,8-dimethyl-4,4-dioxido-4-thia-5,7-diazaspiro[2.5]oct-8-yl]phenyl}pyridine-2-carboxamide] | 3 | 17
6 | CN1C(=N)N[C@](C)(c2cc(NC(=O)c3ncc(C(F)(F)F)cn3)ccc2F)C2(CC2)S1(=O)=O [Example 1i, N-{4-fluoro-3-[(8R)-6-imino-5,8-dimethyl-4,4-dioxido-4-thia-5,7-diazaspiro[2.5]oct-8-yl]phenyl}-5-(trifluoromethyl)pyrimidine-2-carboxamide] | 47 | 106
7 | CN1C(=N)N[C@](C)(c2cc(NC(=O)c3ccc(F)cn3)ccc2F)C2(CC2)S1(=O)=O [Example 1r, 5-fluoro-N-{4-fluoro-3-[(8R)-6-imino-5,8-dimethyl-4,4-dioxido-4-thia-5,7-diazaspiro[2.5]oct-8-yl]phenyl}pyridine-2-carboxamide] | 16 | 8
8 | CN1C(=N)N[C@](C)(c2cc(NC(=O)c3cn4ccsc4n3)ccc2F)C2(CC2)S1(=O)=O [Example 1v, N-{4-fluoro-3-[(8R)-6-imino-5,8-dimethyl-4,4-dioxido-4-thia-5,7-diazaspiro[2.5]oct-8-yl]phenyl}imidazo[2,1-b][1,3]thiazole-6-carboxamide] | 232 | 63
9 | C#CCOc1ccc(C(=O)Nc2ccc(F)c([C@@]3(C)NC(=N)N(C)S(=O)(=O)C34CC4)c2)nc1 [Example 1c, N-{4-fluoro-3-[(8R)-6-imino-5,8-dimethyl-4,4-dioxido-4-thia-5,7-diazaspiro[2.5]oct-8-yl]phenyl}-5-(prop-2-yn-1-yloxy)pyridine-2-carboxamide] | 6 | 95
10 | Cc1cc(C(=O)Nc2ccc(F)c([C@@]3(C)NC(=N)N(C)S(=O)(=O)C34CC4)c2)no1 [Example 1n, N-{4-fluoro-3-[(8R)-6-imino-5,8-dimethyl-4,4-dioxido-4-thia-5,7-diazaspiro[2.5]oct-8-yl]phenyl}-5-methylisoxazole-3-carboxamide] | 620 | 220
11 | COc1ccc(C(=O)Nc2ccc(F)c([C@@]3(C)NC(=N)N(C)S(=O)(=O)C34CC4)c2)nc1 [Example 1a, N-{4-fluoro-3-[(8R)-6-imino-5,8-dimethyl-4,4-dioxido-4-thia-5,7-diazaspiro[2.5]oct-8-yl]phenyl}-5-methoxypyridine-2-carboxamide] | 18 | 17

More lines, in order of falling Ki [1], values ahead:

Row | Ki [1] [nM] | Ki [2] [nM] | SMILES
12 | 5500 | 1640 | CN1C(=N)N[C@](C)(c2cc(NC(=O)c3cn4ccc(C#N)cc4n3)ccc2F)C2(CC2)S1(=O)=O [Example 1m, 7-cyano-N-{4-fluoro-3-[(8R)-6-imino-5,8-dimethyl-4,4-dioxido-4-thia-5,7-diazaspiro[2.5]oct-8-yl]phenyl}imidazo[1,2-a]pyridine-2-carboxamide]
13 | 58 | 346 | CN1C(=N)N[C@](C)(c2cc(NC(=O)c3cnc(C(F)(F)F)cn3)ccc2F)C2(CC2)S1(=O)=O [Example 1p, 5-N-{4-fluoro-3-[(8R)-6-imino-5,8-dimethyl-4,4-dioxido-4-thia-5,7-diazaspiro[2.5]oct-8-yl]phenyl}-5-(trifluoromethyl)pyrazine-2-carboxamide]
14 | 42 | 285 | CN1C(=N)N[C@](C)(c2cc(NC(=O)c3cnc(OCCF)cn3)ccc2F)C2(CC2)S1(=O)=O [Example 1t, 5-(2-fluoroethoxy)-N-{4-fluoro-3-[(8R)-6-imino-5,8-dimethyl-4,4-dioxido-4-thia-5,7-diazaspiro[2.5]oct-8-yl]phenyl}pyrazine-2-carboxamide]
15 | 38 | 41 | COc1cnc(C(=O)Nc2ccc(F)c([C@@]3(C)NC(=N)N(C)S(=O)(=O)C34CC4)c2)c(C)n1 [Example 1q, N-{4-fluoro-3-[(8R)-6-imino-5,8-dimethyl-4,4-dioxido-4-thia-5,7-diazaspiro[2.5]oct-8-yl]phenyl}-5-methoxy-3-methylpyrazine-2-carboxamide]
16 | 25 | 15 | CN1C(=N)N[C@](C)(c2cc(NC(=O)c3cnsn3)ccc2F)C2(CC2)S1(=O)=O [Example 1d, N-{4-fluoro-3-[(8R)-6-imino-5,8-dimethyl-4,4-dioxido-4-thia-5,7-diazaspiro[2.5]oct-8-yl]phenyl}-1,2,5-thiadiazole-3-carboxamide]
17 | 8 | 46 | CN1C(=N)N[C@](C)(c2cc(NC(=O)c3ccc(OC(F)F)cn3)ccc2F)C2(CC2)S1(=O)=O [Example 1s, 5-(difluoromethoxy)-N-{4-fluoro-3-[(8R)-6-imino-5,8-dimethyl-4,4-dioxido-4-thia-5,7-diazaspiro[2.5]oct-8-yl]phenyl}pyridine-2-carboxamide]
18 | 6 | 3 | CN1C(=N)N[C@](C)(c2cc(NC(=O)c3ncc(Cl)cc3F)ccc2F)C2(CC2)S1(=O)=O [Example 1o, 5-chloro-3-fluoro-N-{4-fluoro-3-[(8R)-6-imino-5,8-dimethyl-4,4-dioxido-4-thia-5,7-diazaspiro[2.5]oct-8-yl]phenyl}pyridine-2-carboxamide]
19 | 5 | 2 | CN1C(=N)N[C@](C)(c2cc(NC(=O)c3ccc(Cl)cn3)ccc2F)C2(CC2)S1(=O)=O [Example 2, 5-chloro-N-{4-fluoro-3-[(8R)-6-imino-5,8-dimethyl-4,4-dioxido-4-thia-5,7-diazaspiro[2.5]oct-8-yl]phenyl}pyridine-2-carboxamide]
20 | 2 | 5 | Cc1cc(C#N)cnc1C(=O)Nc1ccc(F)c([C@@]2(C)NC(=N)N(C)S(=O)(=O)C23CC3)c1 [Example 1k, 5-cyano-N-{4-fluoro-3-[(8R)-6-imino-5,8-dimethyl-4,4-dioxido-4-thia-5,7-diazaspiro[2.5]oct-8-yl]phenyl}-3-methylpyridine-2-carboxamide]
